# Data reported in patent US11478442B2, “Pharmaceutical compositions comprising DGLA and use of same” (DS Biopharma Limited, priority 2014, dated 2022).
# Like-named read-outs stand apart in the source and are kept apart here.
# Key:
# [1] = system: spontaneous hypertensive rats; test: Anti-hypertension efficacy of DGLA and aspirin in spontaneous hypertensive rats with phenylephrine challenge; type: in vivo, rat; settings: for effect on mean systemic arterial pressure (in words): aspirin-fed rats
# Procedure: An in vivo investigation of anti-hypertension efficacy following co-administration of DGLA and aspirin in spontaneous hypertensive rats was conducted. This experiment investigated the efficacy of DGLA when co-administered chronically with aspirin to reduce the hypertensive response induced acutely by phenylephrine in spontaneous hypertensive rats. Spontaneously hypertensive adult male rats (250-300 g), bred by Charles River Laboratories, were used for this assay. The animals were identified upon arrival as per CCPA guidelines. The animals were pair-housed by group (low dose+ Aspirin, high dose+ Aspirin or Aspirin alone) for the duration of the oral gavage prior to surgery. All animal care and vivarium maintenance was recorded, with documents kept at the test facility.
# The concentrations of DGLA to be tested (50 and 500 mg/kg) as well as the concentration of aspirin (10 mg/kg) were selected by the Sponsor based on information available at the time of design of this study. They were selected to cover a range of concentrations useful for the identification of the mechanism of action of the test article.
# All solution preparations were documented on a Solution Contents Form, defining labelling information and all relevant information on reagents: batch number, storage conditions, contents, and preparation/expiry dates.
# The test article was formulated using olive oil as the vehicle. This stock solution was then administered by oral gavage once per day for seven consecutive days. A low and a high dose (50 mg/kg and 500 mg/kg) were tested.
# A 5 mg/ml stock solution of Aspirin was prepared by dissolving the appropriate amount of aspirin in 100% DMSO which was then diluted in water. The concentration of DMSO was less than 1%. The appropriate volume was administered by oral gavage to each animal once per day for seven consecutive days. The stock solution was stored at room temperature and was considered stable for the duration of the gavage.
# The appropriate volume was administered to each animal by an intravenous injection at the end of the experiment on the surgery day. The stock solution was stored at 4° C. and was considered stable for the duration of the experiment.
# Male spontaneous hypertensive rats weighing approximately 300 g arrived at the facility at least two days before beginning the oral gavage. Animals were assigned to one of three groups (low dose+ aspirin, high dose+ aspirin, and aspirin), and were pair-housed during the acclimation period. Each group (n=4) received the appropriate compound by oral gavage using a 16G feeding needle. The stock solution was administered once per day for seven consecutive days. On the seventh day of administration, the animals underwent surgery and hypertensive monitoring.
# Rats were anesthetized with a 2.5-3.0% isoflurane-O2 mixture in an induction box. When the animals were removed from the induction box, they were connected onto a nose cone to maintain anesthesia during the tracheotomy. The animals were tracheotomised with an endotracheal tube (7 cm length from connector to the tip made with a PE205 tube from BD and a 16G needle) to facilitate spontaneous breathing, stabilize hemodynamics, and to keep the rat under anesthesia with an isoflurane-O2 mixture. Two catheters were inserted: one in the right femoral artery for systemic arterial pressure (SAP) measurement, and one in the right femoral vein for delivery of the hypertensor and positive control. ECG signals were acquired with ECG contacts placed in a Lead-1 configuration on the anaesthetized animal, and a pulse oxymeter was attached to the animal's hind paw to enable continuous monitoring of the general condition of the rat during the surgical. Following baseline measurements, three doses of phenylephrine (3, 10 and 20 μg/kg) were delivered by an IV bolus injection, leaving 5 minutes between doses. […] After the positive control, 10 μg/kg of phenylephrine was administered again.
# [2] = in vivo
# Procedure: In Part one of the study, plasma PK analysis of Dihomo-Gamma-Linolenic Acid (DGLA) and 15-Hydroxyeicosatrienoic acid (15-HETrE), in fasted subjects alone, was performed for Cohorts one to four up to 312 hours post dose on study Days 1 to 5, 8, 14, and the follow-up visit. In Part two, plasma PK analysis of DGLA was performed for Cohorts five and six up to 168 hours post dose on study Days 1, 2, 3, 5, and 8. Safety assessments were monitored throughout the study.
# Analysis of plasma concentrations of DGLA (free and total) and free 15-HETrE were performed in blood samples obtained from the subjects.
# Analysis of all plasma and skin blister fluid samples was performed using validated methods. Concentrations of free and total DGLA were measured in plasma and skin blister fluid by liquid chromatography with tandem mass spectrometry (LC/MS/MS); the quantitation range was 100 to 10,000 ng/mL for free DGLA and 5000 to 500,000 ng/mL for total DGLA. Plasma concentrations of free 15-HETrE were measured by LC/MS/MS with a quantitation range of 100 to 10,000 ng/mL.
# [3] = Phase one study, food effect: single 1000 mg dose fasted vs fed, plasma pharmacokinetics of free and total DGLA; type: in vivo, human; settings: for Tmax: human, plasma, oral, 1000 mg, read-out: total DGLA tmax, median
# Procedure: The effect of food on the PK of an orally administered single dose of DS107G capsule in healthy subjects.
# Subjects were randomly assigned in a 3:1 ratio of DG107G to placebo by block randomization. Single dose part one of the study comprised three cohorts of eight subjects each, with the addition of Cohort four based on evaluation of the safety data of Cohort three by the Safety Monitoring Committee (SMC). A single oral dose of DS107G or matching placebo was administered to fasted subjects in Cohorts one to three (500, 1000, and 2000 mg, respectively) in parallel; subjects in Cohort four were administered a dose of 4000 mg following completion of Cohort three. Subjects in Cohort two received 1000 mg or matching placebo in the fed state at 14 days after the first dose.
# Food effect was evaluated in Cohort two at least 14 days after the first dose at which time a second single dose was administered. Subjects were administered a 1000-mg dose of study drug with 240 mL of water after a 10-hour fasting period and 30 minutes after starting consumption of a meal. Subjects then refrained from food intake for at least 4 hours after dosing. Food consumption was standardized for at least 12 hours after dosing using a standardized high-fat meal (800 to 1000 kcal with 500 to 600 kcal from fat and 250 kcal from carbohydrates). A typical standard test meal consisted of two eggs fried in butter, two strips of bacon, two slices of toast with butter, 120 mL of hash brown potatoes, and 240 mL of whole milk.
# Subjects in Cohort two undergoing evaluation of the food effect on oral 1000 mg DGLA capsules were restricted from food consumption for at least 4 hours after dosing. Food consumption was standardized for at least 12 hours post dose using a standardized high-fat meal.
# [4] = Phase one study, multiple dose (28 days): plasma pharmacokinetics of free DGLA incl. steady state; type: in vivo, human
# Procedure: (§1) A single-center, double-blind, randomized, placebo-controlled, two part Phase one study was performed in healthy male and female subjects aged 18 to 45 years inclusive. The primary objective of this study was to assess the safety and plasma pharmacokinetics (PK) of orally administered single doses and orally administered multiple doses of DS107G capsules (once daily for 28 days) in healthy subjects.
# (§2) Multiple dose part two of the study comprised two cohorts (Cohorts five and six) of eight subjects each, who were administered multiple doses of study drug in the fasted state for 28 days. Subjects in Cohorts five and six received DS107G 2000 or 4000 mg, respectively, or matching placebo once daily for 28 days. Cohort six was started after Cohort five safety data were evaluated by the SMC. No interim analysis was planned.
# (§3) Safety assessments were monitored throughout the study.
# (§4) In Part two of the study (Cohorts five and six), subjects were administered study drug (500-mg DS107G capsules or matching placebo capsules) once daily in the fasted state for 28 days. Subjects in Cohort five received study drug first and, if they tolerated the 2000-mg daily dose for the first 14 days, subjects in Cohort six were started on the 4000-mg daily dose for 28 days.
# (§5) PK parameter was computed after correcting the dosed DGLA concentrations with baseline DGLA concentrations.
# [5] = Phase one study, multiple dose (28 days): plasma pharmacokinetics of total DGLA incl. steady state; type: in vivo, human; settings: for half-life: 2000 mg, 2000 mg dose cohort, read-out: Median total DGLA elimination t½ (converted); for Peak Trough Fluctuation (PTF), mean (Table 24, total DGLA): steady-state, Day 28 (0-24 hours)
# Procedure: as §1, §2, §3, §4, §5
# [6] = Phase one study, multiple dose: free and total DGLA in skin blister fluid; type: in vivo, human
# From the text: The PK of DGLA in human skin following multiple doses of DS107G capsule given once daily for 28 days to healthy subjects.
# [7] = DGLA 50 mg/kg gavage 7 days, before intravenous phenylephrine
# [8] = concentrations from Days 1, 8, 14 and 28
smiles,measurement,setting,value
"COc1ccccc1OCCNCC(O)COc1cccc2[nH]c3ccccc3c12 (stereo not shown) [Carvedilol, reference compound]",effect on mean systemic arterial pressure (in words),[1]; carvedilol 0.1 mg/kg iv after phenylephrine,significant decrease
same,effect on blood pressure (in words),"[1]; carvedilol 0.1 mg/kg iv, DGLA + aspirin-fed animals",significant decrease in blood pressure
"CNC[C@H](O)c1cccc(O)c1 [phenylephrine, reference compound]",effect on mean systemic arterial pressure (in words),"[1]; phenylephrine 3, 10, 20 μg/kg iv",increased mean systemic arterial pressure with increasing doses
"CCCCC[C@H](O)/C=C/C=C\C/C=C\CCCCCCC(=O)O [Batch 15-HETrE, 15-Hydroxyeicosatrienoic acid]",plasma free 15-HETrE concentration,[2],< 100 ng/m L
"CCCCC/C=C\C/C=C\C/C=C\CCCCCCC(=O)O [DGLA, Dihomo gamma linolenic acid]",Diastol arterial pressure,[1]; [7],75 mm Hg
same,Systol arterial pressure,[1]; [7],120 mm Hg
same,Diastol arterial pressure,"[1]; DGLA 500 mg/kg gavage 7 days, before intravenous phenylephrine",80 mm Hg
same,effect on arterial pressure in spontaneously hypertensive rats (in words),"[1]; DGLA alone, 50 or 500 mg/kg gavage 7 days",successfully decreases the arterial pressure
same,free DGLA Cmax occurred sooner (median) under fasted than fed conditions,[3],1 h
same,Tmax,[3]; fasted,8 h
same,Tmax,[3]; fed,15 h
same,free DGLA mean accumulation ratio (AR) for AUC,[4]; 2000 mg daily,~3.3
same,free DGLA mean accumulation ratio (AR) for Cmax,[4]; 2000 mg daily,~2.8
same,free DGLA mean accumulation ratio (AR) for AUC,[4]; 4000 mg daily,~1.6
same,free DGLA mean accumulation ratio (AR) for Cmax,[4]; 4000 mg daily,~1.4
same,day by which plasma concentrations reached steady-state,"[4]; 2000 and 4000 mg daily, free and total DGLA",~14 days
same,time after dosing at which mean concentrations of free DGLA peaked,"[4]; Days 1 and 28, 2000 and 4000 mg daily",about 4 hours
same,half-life,"[5]; both sexes, human, plasma, oral, Day 1, assessed over 24 hours",2060 min
same,half-life,"[5]; both sexes, human, plasma, oral, Day 28, assessed over 24 hours",2640 min
same,half-life,"[5]; both sexes, human, plasma, oral, Day 28, evaluated over 0 to 168 hours",3760 min
same,Tmax,"[5]; both sexes, human, plasma, oral, with multiple doses, both dose cohorts, read-out: total DGLA Median T (tmax)",8 to 10 h
same,"Peak Trough Fluctuation (PTF), mean (Table 24, total DGLA)",[5]; first of both dose cohorts (2000 mg),62.5%
same,"Peak Trough Fluctuation (PTF), mean (Table 24, total DGLA)",[5]; second of both dose cohorts (4000 mg),44.9%
same,"Mean total DGLA concentrations in skin blister fluid, Day 28 vs Day 1",[6]; 2000 mg daily,about 2.5 fold
same,"Mean total DGLA concentrations in skin blister fluid, Day 28 vs Day 1",[6]; 4000 mg daily,~3 fold
same,change of mean free DGLA concentrations in skin blister fluid with a doubling in dose (in words),[6]; [8],approximately doubled
same,increase of mean total DGLA concentrations in skin blister fluid with a doubling in dose,[6]; [8],about 1.4 fold
"CC(=O)Oc1ccccc1C(=O)O [Aspirin, reference compound]","Mean Arterial Pressure, Average","[1]; Aspirin 10 mg/kg/day gavage 7 days, Baseline",136.8 mm Hg
